Data as given in the supplement of paper PMC10627819.

Legend:
S. aureus Newman [1] = experiment: fitness (endpoint OD595 vs no drug) (fraction); higher = more growth
In short: (§1)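 Cultures at OD595 0.01 were dispensed into 384-well plates in TSB, LB Lennox or CY and incubated at 37 °C. Every 30 min for 14 h, OD595 was read and corrected by the first reading. Fitness is the optical density at entry into stationary phase relative to the robust mean of no-drug control wells, capped at 1.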

B. subtilis 168 [2] = experiment: as above
In short: as §1

S. aureus DSM 20231 [3] = experiment: as above
In short: as §1

S. aureus Newman [4] = experiment: Bliss interaction score (quartile over a dose matrix) (fitness difference); higher = more antagonism (negative = synergy)
In short: (§2)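 Quartiles of the Bliss score were taken over technical, biological and donor/recipient replicates. That score is observed fitness minus the product of the single-drug fitness values, which were inferred from combination data. Fitness itself is OD595 at entry into stationary phase divided by the plate's robust no-drug mean, with a cap at 1.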

B. subtilis 168 [5] = experiment: as above
In short: as §2

S. pneumoniae D39V = experiment: as above
In short: as §2

S. aureus DSM 20231 [6] = experiment: as above
In short: as §2
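Wherever Bliss interaction score (quartile over a dose matrix) is given: first quartile when negative (synergy) and third quartile when positive (antagonism).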

CC[C@H]1OC(=O)[C@H](C)[C@@H](O[C@H]2C[C@@](C)(OC)[C@@H](O)[C@H](C)O2)[C@H](C)[C@@H](O[C@@H]2O[C@H](C)C[C@H](N(C)C)[C@H]2O)[C@](C)(O)C[C@@H](C)CN(C)[C@H](C)[C@@H](O)[C@]1(C)O [Azithromycin] + CN[C@@H]1[C@H](O)[C@H](NC)[C@H]2O[C@@]3(O)C(=O)C[C@@H](C)O[C@H]3O[C@@H]2[C@H]1O [Spectinomycin]
fitness
Settings | partner 2 µg/mL | partner 4 µg/mL | partner 8 µg/mL | partner 16 µg/mL
B. subtilis 168 [2], first compound 0.25 µg/mL | 0.918 | 0.895 | 0.815 | –
B. subtilis 168 [2], first compound 0.5 µg/mL | 0.849 | 0.816 | – | –
S. aureus DSM 20231 [3], first compound 0.125 µg/mL | – | 0.856 | 0.774 | 0.755
S. aureus DSM 20231 [3], first compound 0.25 µg/mL | – | 0.788 | 0.771 | 0.644
S. aureus Newman [1], first compound 0.125 µg/mL | – | 0.84 | 0.849 | 0.821
S. aureus Newman [1], first compound 0.25 µg/mL | – | 0.818 | 0.812 | 0.689

fitness, one replicate
Settings | first compound 0.125 µg/mL | first compound 0.25 µg/mL | first compound 0.5 µg/mL
S. aureus DSM 20231 [3], partner 32 µg/mL | 0.658 | 0.348 | 0.0388
S. aureus DSM 20231 [3], partner 64 µg/mL | 0.0503 | 0.0326 | 0.0093
S. aureus Newman [1], partner 32 µg/mL | 0.401 | 0.165 | 0.0078
S. aureus Newman [1], partner 64 µg/mL | 0.0378 | 0.0151 | 0.003

Settings | Bliss interaction score
B. subtilis 168 [5] | -0.0884
S. aureus DSM 20231 [6] | -0.107
S. aureus Newman [4] | -0.124
S. pneumoniae D39V | -0.0642

CC[C@H]1OC(=O)[C@H](C)[C@@H](O[C@H]2C[C@@](C)(OC)[C@@H](O)[C@H](C)O2)[C@H](C)[C@@H](O[C@@H]2O[C@H](C)C[C@H](N(C)C)[C@H]2O)[C@](C)(O)C[C@@H](C)CN(C)[C@H](C)[C@@H](O)[C@]1(C)O [Azithromycin] + CO/N=C(\C(=O)N[C@@H]1C(=O)N2C(C(=O)O)=C(COC(C)=O)CS[C@H]12)c1csc(N)n1 [Cefotaxime]
fitness, one replicate
Settings | first compound 0.125 µg/mL | first compound 0.25 µg/mL | first compound 0.5 µg/mL | first compound 1 µg/mL | first compound 2 µg/mL
B. subtilis 168 [2], partner 0.00775 µg/mL | – | – | 0.831 | 0.567 | 0.0141
B. subtilis 168 [2], partner 0.0155 µg/mL | – | – | 0.714 | 0.324 | 0.0276
B. subtilis 168 [2], partner 0.031 µg/mL | – | – | 0.516 | 0.153 | 0.0097
S. aureus DSM 20231 [3], partner 0.039 µg/mL | 0.725 | 0.724 | 0.589 | – | –
S. aureus Newman [1], partner 0.039 µg/mL | 0.792 | 0.896 | 0.786 | – | –
S. aureus Newman [1], partner 0.312 µg/mL | 0.269 | 0.241 | 0.0227 | – | –

fitness
Settings | first compound 0.125 µg/mL | first compound 0.25 µg/mL | first compound 0.5 µg/mL | first compound 1 µg/mL
B. subtilis 168 [2], partner 0.0625 µg/mL | – | 0.654 | 0.631 | –
B. subtilis 168 [2], partner 0.125 µg/mL | – | 0.456 | 0.456 | 0.21
B. subtilis 168 [2], partner 0.25 µg/mL | – | 0.349 | 0.358 | 0.177
B. subtilis 168 [2], partner 0.5 µg/mL | – | 0.21 | 0.19 | 0.0636
B. subtilis 168 [2], partner 1 µg/mL | – | 0.141 | 0.103 | 0.0233
B. subtilis 168 [2], partner 2 µg/mL | – | 0.111 | 0.0792 | 0.037
S. aureus DSM 20231 [3], partner 0.078 µg/mL | 0.744 | 0.768 | 0.554 | –
S. aureus DSM 20231 [3], partner 0.156 µg/mL | 0.672 | 0.762 | 0.511 | –
S. aureus DSM 20231 [3], partner 0.312 µg/mL | 0.6 | 0.668 | 0.487 | –
S. aureus Newman [1], partner 0.078 µg/mL | 0.722 | 0.754 | 0.549 | –
S. aureus Newman [1], partner 0.156 µg/mL | 0.587 | 0.588 | – | –
S. aureus Newman [1], partner 0.625 µg/mL | – | – | 0.0779 | –
S. aureus Newman [1], partner 1.25 µg/mL | 0.157 | 0.0373 | 0.0342 | –
S. aureus Newman [1], partner 2.5 µg/mL | 0.0341 | 0.0356 | 0.0427 | –

Settings | Bliss interaction score
B. subtilis 168 [5] | -0.053
S. aureus DSM 20231 [6] | 0.0492
S. aureus Newman [4] | -0.0321
S. pneumoniae D39V | 0.0552

CC[C@H]1OC(=O)[C@H](C)[C@@H](O[C@H]2C[C@@](C)(OC)[C@@H](O)[C@H](C)O2)[C@H](C)[C@@H](O[C@@H]2O[C@H](C)C[C@H](N(C)C)[C@H]2O)[C@](C)(O)C[C@@H](C)CN(C)[C@H](C)[C@@H](O)[C@]1(C)O [Azithromycin] + COc1c(N2C[C@@H]3CCCN[C@@H]3C2)c(F)cc2c(=O)c(C(=O)O)cn(C3CC3)c12 [Moxifloxacin]
fitness
Settings | first compound 0.125 µg/mL | first compound 0.25 µg/mL | first compound 0.5 µg/mL | first compound 1 µg/mL | first compound 2 µg/mL
B. subtilis 168 [2], partner 0.0312 µg/mL | – | – | 0.0678 | 0.0582 | 0.0414
B. subtilis 168 [2], partner 0.0625 µg/mL | – | 0.0511 | 0.0366 | 0.0237 | 0.0289
B. subtilis 168 [2], partner 0.125 µg/mL | – | 0.0301 | 0.0372 | 0.0336 | 0.02
B. subtilis 168 [2], partner 2 µg/mL | – | 0.027 | 0.0186 | 0.0208 | –
B. subtilis 168 [2], partner 4 µg/mL | – | 0.0147 | 0.0272 | 0.0194 | –
B. subtilis 168 [2], partner 8 µg/mL | – | 0.0347 | 0.042 | 0.0214 | –
S. aureus DSM 20231 [3], partner 0.0075 µg/mL | 0.727 | 0.747 | – | – | –
S. aureus DSM 20231 [3], partner 0.015 µg/mL | 0.687 | 0.772 | 0.592 | – | –
S. aureus DSM 20231 [3], partner 0.03 µg/mL | 0.656 | 0.737 | 0.556 | – | –
S. aureus Newman [1], partner 0.0075 µg/mL | 0.717 | 0.723 | – | – | –
S. aureus Newman [1], partner 0.015 µg/mL | 0.666 | – | 0.415 | – | –
S. aureus Newman [1], partner 0.03 µg/mL | – | – | 0.307 | – | –

fitness, S. aureus DSM 20231 [3], one replicate
Settings | first compound 0.125 µg/mL | first compound 0.25 µg/mL | first compound 0.5 µg/mL
partner 0.06 µg/mL | 0.633 | 0.623 | 0.587
partner 0.12 µg/mL | 0.528 | 0.559 | 0.452

Settings | Bliss interaction score
B. subtilis 168 [5] | 0.0244
S. aureus DSM 20231 [6] | 0.0773
S. aureus Newman [4] | 0.118
S. pneumoniae D39V | 0.0652
